The target of one experiment is T1, TSG101 UEV (Homo sapiens, UniProt Q99816).
T1 construct: TSG101_UEV__Q99816_1_145; made in house; host or cells: Escherichia coli BL21-Gold(DE3)
T1 sequence (Q99816 1-145): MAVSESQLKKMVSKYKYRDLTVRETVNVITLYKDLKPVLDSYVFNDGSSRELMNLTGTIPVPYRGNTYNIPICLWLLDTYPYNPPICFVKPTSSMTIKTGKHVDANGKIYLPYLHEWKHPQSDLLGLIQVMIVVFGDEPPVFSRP
Kind of experiment: FP displacement assay, TSG101 UEV. The experiment is classed as binding. Conditions: for Kd: read-out: KD values ± SEM; for IC50: Fig 4B, TSG101 UEV, technical triplicates, read-out: IC50 values of displacement curves, with SEM. As to the method:
FP experiments were performed as described previously (Kliche et al, [2021]). Shortly, in order to monitor the binding event, FITC‐labelled peptides were used (excitation 495 nm, emission: 535 nm) and the FP signal was recorded in mP on a SpectraMax iD5 Multi‐Mode Microplate Reader (Molecular Devices) by measuring the emitted light in two angels. The measurements were performed at room temperature and prepared in nonbinding black half area 96‐well microplates (Corning®; 50 μl/well). For measuring direct binding, that is saturation curves, a 1:1 dilution series of protein domain (25 μl/well) was generated in 50 mM sodium phosphate buffer pH 7.4 and the measurement performed with 5 nM FITC‐labelled peptide (25 μl/well). The buffer‐corrected values were subsequently plotted with PRISM and fitted to the quadratic equation (Gianni et al, [2005]).
The 1:1 dilution series in this experiment was performed with the unlabelled peptide in 50 mM sodium phosphate buffer pH 7.4, so that each well‐contained unlabelled peptide (25 μl) at a certain concentration and pre‐formed complex (25 μl). The KD values of this indirectly monitored binding event were calculated as described previously (Nikolovska‐Coleska et al, [2004]). All measurements were at least in technical triplicates as well as biological duplicates when indicated. An amplitude shift between repeat measurements in the displacement experiments was occasionally observed due to variations in the protein preparations. If that was the case, the “active” protein concentration was back‐calculated according to the quadratic equation from the saturation curves performed in parallel. By comparing the active protein concentrations in the complex between different protein preparations, the amplitude was normalised.

The subject of another experiment is bait protein domains. Briefly: Phosphomimetic ProP-PD selection against the PM_HD2 library (NGS counts, confidence level, PES), any bait. The experiment is classed as binding, human. Also noted: Confidence / Max confidence: scale not given here. Conditions: bait ABL1_SH3__P00519_60_121; for Has possible phosphoregulated psite? (PES +2/-2, p<0.01) / Max confidence: hit given as wt version; for Confidence / Promiscuity / Specificity: selection results by peptide. How it is done: Selections using the PM_HD2 phage library were performed as described previously with minor modification to the original protocol. The corresponding tag protein (either GST or MBP) was first used during negative selections. Selections were run for 4 days. • Bait and tag proteins (10–15 μg in 100 μl PBS) were immobilised in 96‐well MaxiSorb plate (NUNC) o.n. at 4°C. • Escherichia coli OmniMax bacteria were grown in 2YT medium supplemented with tetracycline (100 μg/ml) at 37°C and 200 rpm. • Plates with immobilised bait/tag proteins were blocked with 0.5% BSA in PBS for 1 h at 4°C. • Phage library (10 μl/well) was prepared by diluting 10× with PBS and adding one‐fourth of the volume of PEG/NaCl. For phage precipitation, prepared library was incubated for 10 min on ice followed by centrifugation for 10 min at 10,000 × g at 4°C. Phages were resuspended in 0.5% BSA, 0.05% Tween in PBS. • Plates with tag proteins were washed 4× with 0.05% Tween in PBS, and naïve phage library was added to each well (100 μl/well) and the plates incubated for 1 h at 4°C. • Plates with bait protein were washed 4× with 0.05% Tween in PBS, and nonbound phages were transferred from the tag protein plate and the plates incubated for 1 h at 4°C. • Plates were again washed 5× with 0.05% Tween in PBS, and bound phages were eluted with log‐phase OmniMax bacteria (100 μl/well) by incubating for 30 min at 37°C at 200 rpm. • M13K07 helper phage (10^12 cfu/ml) was added to each well and the plates incubated for 45 min at 37°C at 200 rpm. • Amplification took place o.n. by adding the eluted phages to 1.1 ml 2YT media supplemented with kanamycin (25 μg/ml), carbenicillin (50 μg/ml) and 0.3 μM IPTG in a 96‐deep‐well plate and incubating o.n. at 37°C at 200 rpm. • Bacteria were pelleted by centrifugation for 15 min at 1,700 × g at 4°C. The phage supernatant was pH‐adjusted by the addition of 10× PBS and remaining bacteria heat‐inactivated by incubating for 10 min at 60°C. Selections were repeated as described from (5).
Based on the results from phage pool ELISAs, samples from selection Day 3 and 4 were selected for NGS, as described previously (Benz et al, [2022]). • Peptide coding regions were amplified and dual‐barcoded by PCR. 5 μl of the enriched phage pools (50 μl reactions) and a high‐fidelity phusion polymerase (Roche) were used for the PCR reaction. Amplification was confirmed by running the PCR product on 2% agarose gel with a 50 bp ladder. • PCR products (25 μl) were purified with 25 μl of Mag‐bind Total Pure NGS beads and normalised in the same step by taking 10 μl of each reaction after resuspension (Qiagen Elution buffer: 10 mM Tris‐Cl and 0.1 mM EDTA (pH 8.5)) from the beads. • The samples were cleaned up with a PCR purification kit (Qiagen) and subsequently run on a 2% agarose gel, and bands of the correct size (ca. 200 bp) were purified with the QIAquick Gel extraction Kit (Qiagen). From the columns, samples were eluted with 30 μl TE (10 mM Tris–HCl, 1 mM EDTA. pH 7.5) buffer and quantified with Quant‐iT PicoGreen dsDNA Assay Kit. • Samples were sequenced on MiSeq (MSC 2.5.0.5/RTA 1.18.54) with a 151 nt (Read1) setup using “Version3” chemistry. The Bcl to FastQ conversion was performed using bcl2fastq_v2.20.0.422 from the CASAVA software suite.
The processing of sequencing data was performed as described in Ali et al ([2020]). In brief: Pooled results from ~500 selection experiments were demultiplexed by identifying unique combinations of 5′ and 3′ barcodes, sequences with an average quality score of 20 or more were conserved and their adaptors were trimmed, and DNA sequences translated using in‐house custom Python scripts. A table for each experiment was built containing peptide sequences associated with their sequencing counts. […]

[1] abbreviates: probe FITC-HIV2_Gag 5 nM, 50 mM sodium phosphate pH 7.4, room temperature, at least three technical replicates.

Non-standard residues stand in square brackets, D forms with d. Residues, ends and D or L forms follow the SMILES beside them. pT = C[C@@H](OP(=O)(O)O)[C@H](N)C(=O)O; pS = N[C@@H](COP(=O)(O)O)C(=O)O

By Kd is commonly meant the constant that tells how readily two partners part at equilibrium. For the compound `CC(=O)N[C@@H](Cc1c[nH]cn1)C(=O)N[C@@H](CO)C(=O)NCC(=O)N[C@@H](CC(N)=O)C(=O)N[C@H](C(=O)N[C@H](C(=O)N1CCC[C@H]1C(=O)N[C@H](C(=O)N[C@@H](C)C(=O)N1CCC[C@H]1C(=O)N1CCC[C@H]1C(=O)N[C@@H](Cc1ccc(O)cc1)C(=O)N[C@@H](CC(C)C)C(=O)N[C@@H](CCC(N)=O)C(=O)N[C@@H](CCC(=O)O)C(=O)N[C@@H](CO)C(N)=O)[C@@H](C)O)[C@@H](C)O)C(C)C` [PIP4P2_17–32 wt] (Ac-HSGNVTPTAPPYLQES-NH2), the Kd at TSG101 UEV (setting [1]) was determined as 14 ± 1 µM.

Turning to “H3COC-QSIAREPS(pS/E)APSIPTPY-NH2 [PDCD6IP711–725 pS, phosphorylated PDCD6IP 711-725 peptide]”, the “KD values ± SEM” value at TSG101 UEV (setting [1]) was “n.b”.

Consider PATSPPKTPPQLEALQ [listing 1 of 2 here], for which, in the experiment with bait protein domains, the “Has possible phosphoregulated psite? (PES +2/-2, p<0.01)” value is given as “yes” and the Max confidence was 3.

Take PATSPPKEPPQLEALQ: in the experiment with bait protein domains, the Confidence amounted to 2, the Promiscuity amounted to 2 and the Specificity was 0.9898.

As to PPFSPPPSPRGEVERG, in the experiment on bait protein domains, the “Has possible phosphoregulated psite? (PES +2/-2, p<0.01)” value is “yes” and the Max confidence is reported as 3.

Consider DAPPHYPPPSTAAASP [listing 1 of 2 here], for which, in the experiment with bait protein domains, the “Has possible phosphoregulated psite? (PES +2/-2, p<0.01)” value is on record as “yes” and the Max confidence came to 3.

Consider PATSPPKTPPQLEALQ [listing 2 of 2 here], for which, in the experiment with bait protein domains, the Confidence is given as 3, the Promiscuity is listed as 3 and the Specificity was 0.9995.

Turning to DAPPHYPPPSTAAAEP, in the experiment on bait protein domains, the Confidence is recorded as 3, the Promiscuity is listed as 4 and the Specificity was 0.8807.

For the compound LTYPQYSPPQPRPGVI, in the experiment on bait protein domains, the “Has possible phosphoregulated psite? (PES +2/-2, p<0.01)” value is reported as “yes” and the Max confidence was 4.

Consider SPPRPPPPPPLLGTVS, for which, in the experiment on bait protein domains, the “Has possible phosphoregulated psite? (PES +2/-2, p<0.01)” value is “yes” and the Max confidence is given as 3.

As a reminder, the IC50 is the concentration that inhibits the measured activity by half. `CC[C@H](C)[C@H](NC(=O)[C@H](CO)NC(=O)[C@H](CCC(N)=O)NC(C)=O)C(=O)N[C@@H](C)C(=O)N[C@@H](CCCNC(=N)N)C(=O)N[C@@H](CCC(=O)O)C(=O)N1CCC[C@H]1C(=O)N[C@@H](CO)C(=O)N[C@@H](C)C(=O)N1CCC[C@H]1C(=O)N[C@@H](CO)C(=O)N[C@H](C(=O)N1CCC[C@H]1C(=O)N[C@H](C(=O)N1CCC[C@H]1C(=O)N[C@@H](Cc1ccc(O)cc1)C(N)=O)[C@@H](C)O)[C@@H](C)CC` [PDCD6IP711–725 wt] (Ac-QSIAREPSAPSIPTPY-NH2): the IC50 at TSG101 UEV was 34 ± 10 µM. On TSG101 UEV (setting [1]), the Kd was 16 ± 3 µM.

Take PSYSPPDTSPANRSFV: in the experiment on bait protein domains, the Confidence was found to be 2, the Promiscuity is reported as 1 and the Specificity stood at 1.

For the compound `CC(=O)N[C@@H](Cc1c[nH]cn1)C(=O)N[C@@H](CO)C(=O)NCC(=O)N[C@@H](CC(N)=O)C(=O)N[C@H](C(=O)N[C@H](C(=O)N1CCC[C@H]1C(=O)N[C@H](C(=O)N[C@@H](C)C(=O)N1CCC[C@H]1C(=O)N1CCC[C@H]1C(=O)N[C@@H](Cc1ccc(O)cc1)C(=O)N[C@@H](CC(C)C)C(=O)N[C@@H](CCC(N)=O)C(=O)N[C@@H](CCC(=O)O)C(=O)N[C@@H](CO)C(N)=O)[C@@H](C)O)[C@@H](C)OP(=O)(O)O)C(C)C` [PIP4P2_17–32 pS] (Ac-HSGNV[pT]PTAPPYLQES-NH2), the IC50 on TSG101 UEV amounted to 34 ± 10 µM. Also, the Kd on TSG101 UEV (setting [1]) is 16 ± 3 µM.

`CSCC[C@H](NC(=O)[C@@H]1CCCN1C(=O)[C@H](CO)NC(=O)[C@H](CC(C)C)NC(=O)[C@@H]1CCCN1C(=O)[C@H](C)NC(=O)[C@@H](NC(=O)[C@@H]1CCCN1C(=O)[C@H](CO)NC(=O)[C@H](CO)NC(=O)[C@H](C)NC(=O)CNC(=O)[C@H](CC(N)=O)NC(=O)[C@H](Cc1ccc(O)cc1)NC(C)=O)[C@@H](C)O)C(=O)N[C@@H](CO)C(=O)N1CCC[C@H]1C(N)=O` [GJA1_269–283 wt] (Ac-YNGASSPTAPLSPMSP-NH2): at TSG101 UEV (setting [1]), the Kd is 232 ± 16 µM.

With DAPPHYPPPSTAAASP [listing 2 of 2 here], in the experiment with bait protein domains, the Confidence turned out to be 2, the Promiscuity was 3 and the Specificity was determined as 0.7461.

Take `CSCC[C@H](NC(=O)[C@@H]1CCCN1C(=O)[C@H](COP(=O)(O)O)NC(=O)[C@H](CC(C)C)NC(=O)[C@@H]1CCCN1C(=O)[C@H](C)NC(=O)[C@@H](NC(=O)[C@@H]1CCCN1C(=O)[C@H](CO)NC(=O)[C@H](CO)NC(=O)[C@H](C)NC(=O)CNC(=O)[C@H](CC(N)=O)NC(=O)[C@H](Cc1ccc(O)cc1)NC(C)=O)[C@@H](C)O)C(=O)N[C@@H](CO)C(=O)N1CCC[C@H]1C(N)=O` [GJA1_269–283 pS] (Ac-YNGASSPTAPL[pS]PMSP-NH2): the IC50 at TSG101 UEV amounted to 420 ± 29 µM. Besides, the dissociation constant Kd on TSG101 UEV (setting [1]) turned out to be 209 ± 8 µM.

The record behind these values is paper PMC10333884, “Large‐scale phosphomimetic screening identifies phospho‐modulated motif‐based protein interactions” (Molecular Systems Biology, 2023).
